Source: ChEMBL document CHEMBL3507680, “University of Dundee, Gates Library screen for HepG2 cell viability”

Assay: Human HepG2 cell viability assay in 384 well format
Type: toxicity, cell-based
Set-up: dose 125 nL, time 70.5 hour; cytotoxicity at 70.5 h: concentration not given beside the values
Details: HepG2 cells, read-out: Inhibition

Row | SMILES | cytotoxicity at 70.5 h [%]
1 | CC(=O)N1CCC(c2ccnc(Nc3cncnc3)n2)C1 (stereo unspecified) | -32.6
2 | CC(=O)N1CCCC1c1cccc(Cc2ccc(F)cc2)n1 (stereo unspecified) | -14.3
3 | CC(=O)N1CCC(C(=O)c2cc(C)cnc2N)CC1 | -15.5
4 | Cc1nc(Nc2ncccn2)cc(C2CCCN2CC(C)C)n1 (stereo unspecified) | 43.1
5 | CN(C)C(=O)CN1CCCCC1c1nc(N)ncc1-c1ccccc1 (stereo unspecified) | -17.6
6 | CC(C)n1c(C2CCCN(Cc3ccnn3C)C2)nc2ccccc21 (stereo unspecified) | -9.99
7 | Cc1n[nH]cc1C(=O)N1CCCC(n2nnc3cc(F)ccc32)C1 (stereo unspecified) | -12.2
8 | Cn1cc(CN2CCc3nc(-c4ccccn4)nc(O)c3C2)cn1 | 22.4
9 | CCn1ncc(CN2CCc3c(nc(-c4cccnc4)[nH]c3=O)C2)c1C | -18.3
10 | Cc1nn(C)c(C)c1-c1cncc(C2CCN(S(C)(=O)=O)CC2)n1 | -19.6
11 | CC(=O)N1CCCC(c2cnc(-c3c(C)nn(C)c3C)cn2)C1 (stereo unspecified) | -20.6
12 | CC(C)n1cc(C(=O)N2Cc3ccccc3OC3(CCOCC3)C2)cn1 | 23.6
13 | OC1(Cn2ccc3ccncc32)CCN(Cc2ccccn2)CC1 | -2.48
14 | O=C(c1cccnc1)N1CCCC(c2cc(C(F)F)n3ncnc3n2)C1 (stereo unspecified) | -13.8
15 | c1cnc(-c2cnc(N3CCSCC3)nc2C2CCCO2)cn1 (stereo unspecified) | -16.8
16 | Cc1ccc(S(=O)(=O)N2C[C@@H]3C[C@@H](NC(=O)C(C)(C)C)[C@@H]3C2)cc1 | -16.5
17 | O=C(c1cnco1)N1C[C@@H]2CC[C@H](Oc3cccc(F)c3)[C@@H]2C1 | -3.26
18 | Cc1ncc(CNC(=O)CCc2cccc(F)c2)c(C2CCCN2C)n1 (stereo unspecified) | -2.51
19 | O=C(Cc1ccc(F)cc1)N1CCCCC1c1ccn2ccnc2n1 (stereo unspecified) | -12

Row | SMILES | cytotoxicity at 70.5 h [%]
20 | Cc1nccc(C2CN(Cc3cc[nH]n3)CCO2)n1 (stereo unspecified) | -15.2
21 | CC(=O)N1CCN([C@@H]2CC[C@@H](NC(=O)c3cncc(C)c3)[C@H]2O)CC1 | 24
22 | CC(=O)N1CCCC1c1ccc(-c2c(C)noc2C)cn1 (stereo unspecified) | -9.29
23 | CNC(=O)CCc1cc(C)nc(C2CCCN2)n1 (stereo unspecified) | -12.5
24 | Cc1noc(C)c1-c1cccc(CC2CCN(C(=O)CCC(=O)O)C2)n1 (stereo unspecified) | -11.7
25 | CCn1cc(CN2CC3CCCN3C[C@H]2C)c(C)n1 (stereo partly specified) | 2.28
26 | CNC(=O)C1(CCCc2cccnc2)CCCCN1 (stereo unspecified) | -1.91
27 | Cc1ccccc1-c1cncc(C2CCN(C(=O)CN(C)C)CC2)n1 | 23.3
28 | COCC(=O)N1CCC(c2cccc(Cc3ccc(F)cc3)n2)CC1 | -6.39
29 | CN(CCOCC1CC1)C(=O)Nc1ccc(C#N)c(Cl)c1 | -0.0375
30 | COC(=O)c1ccc(CN2CCC(c3n[nH]c(C)n3)CC2)s1 | -0.468
31 | CC(C)(C)n1ncc(NCCc2ccccc2C(F)(F)F)c(Cl)c1=O | 33
32 | CCOCC(=O)Nc1cc(-c2cccc(F)c2F)n[nH]1 | -7.88
33 | CC(C)(C)n1ncc(NCC(O)c2ccc(F)c(F)c2)c(Cl)c1=O (stereo unspecified) | -0.243
34 | O=C1CC(C(=O)NCc2ccccc2Oc2ccccc2F)CCN1 (stereo unspecified) | -1.83
35 | COc1cccc(Cn2c(C3CCNCC3)cc3cccnc32)c1 | -1.55
36 | COc1ccccc1C1(NCc2c(C)nc3c(C)cccn23)CCCC1 | 24.9
37 | CN(C)c1ccnc(C2CCCN2)n1 (stereo unspecified) | -3.83
38 | CC(Cn1cncc1-c1cnn(C2CCCCC2)c1)N1CCCCC1 (stereo unspecified) | 25

Row | SMILES | cytotoxicity at 70.5 h [%]
39 | Fc1cccc(F)c1Cn1c(C2CCNCC2)cc2cccnc21 | 3.7
40 | COc1cccc(Nc2nc(C3CCNCC3)c3ccccn23)c1 | -2.27
41 | COc1cccc(CCC(=O)N2CCC[C@@H](N)[C@@H]2c2ccccc2F)c1 | -1.81
42 | COc1cccc([C@H]2CN(C(C)=O)[C@@H]3CCN(Cc4ccsc4)C[C@H]23)c1 | -4.18
43 | CNCC(=O)N1CC(c2cc(Nc3ncccn3)nc(C)n2)C1 | -20.3
44 | c1cnc2c(c1)cc([C@H]1CCCO1)n2CCN1CCCCC1 | 20.3
45 | OC1(Cn2ccc3ncccc32)CCN(Cc2ccccn2)CC1 | 24.4
46 | COc1ccccc1C(=O)N1Cc2cc(C)ccc2OCC1CN(C)C (stereo unspecified) | -8.39
47 | OC1CCN(Cc2c(C3CCCNC3)[nH]c3ncccc23)CC1 (stereo unspecified) | -22.4
48 | CC(C)C(=O)N1CCCC(c2cc(C(F)F)n3ncnc3n2)C1 (stereo unspecified) | 23.9
49 | c1cnc2c(c1)cc([C@H]1CCCO1)n2CCN1CCOCC1 | -27.8
50 | CCC(CN1CCN(C)CC1)NC(=O)C1(c2cccc(F)c2)CC1 (stereo unspecified) | -4.87
51 | COc1ccc(CN(Cc2cncn2C)CC2CCCO2)c(OC)c1 (stereo unspecified) | 4.29
52 | Cc1cc(C[C@@H]2CCC[C@H]2NCc2cc(C)c(O)c(C)c2)on1 | 2.36
53 | CCc1ccc(CN(CCCn2ccnc2)Cc2ccc(C)s2)o1 | 21.1
54 | Cc1cccc(CN(Cc2ccc(C)o2)C2CC(C)(C)NC(C)(C)C2)n1 | -9.61
55 | Cc1ccc([C@]2(O)CC[C@H]3CN(Cc4cc(C)c(O)c(C)c4)C[C@H]32)nc1 | 30.6
56 | O[C@]1(c2ccccn2)CC[C@@H]2CN(Cc3cccc4ncccc34)C[C@@H]21 | 15.3
